Data taken from patent EP2980218A1, “Aptamer thrombin complex for use as an antidote to direct acting thrombin inhibitors” (Rheinische Friedrich-Wilhelms-Universität Bonn, priority 2014, dated 2016).

Experiments:
[1] = anticoagulation monitoring (anti-FIIa activity) after oral dabigatran in mice; assay type: in vivo; settings: oral administration of 1 mg/g body weight dabigatran
Procedure: The in-vivo antidote properties of aptathrombin were studied in a mouse model after oral administration of 1 mg/g body weight dabigatran.

[2] = humans, after dabigatran administration; cited from earlier work

## N-[2-(4-Aminoiminomethylphenylamino)-1-methyl-1H-benzimidazol-5-ylcarbonyl]-N-(2-pyridyl)-beta-alanine [dabigatran]
[1]
  time to peak level of anti-FIIa activities: 3 to 4 h
[2]
  plasma concentration, upper limit of the peak level: 280 ng/mL
  time at which peak level is reached: 2 to 4 h
